Usually IC50 stands for the concentration that inhibits the measured activity by half. The low end stands for higher potency, the high end for lower potency.

From paper PMC9646675 (Nature, 2022) come the findings set out here.

Test [1] concerns the target T1, uncoupling protein 1 (UCP1) (Mus musculus, UniProt P12242).
T1 sequence (P12242 1-307): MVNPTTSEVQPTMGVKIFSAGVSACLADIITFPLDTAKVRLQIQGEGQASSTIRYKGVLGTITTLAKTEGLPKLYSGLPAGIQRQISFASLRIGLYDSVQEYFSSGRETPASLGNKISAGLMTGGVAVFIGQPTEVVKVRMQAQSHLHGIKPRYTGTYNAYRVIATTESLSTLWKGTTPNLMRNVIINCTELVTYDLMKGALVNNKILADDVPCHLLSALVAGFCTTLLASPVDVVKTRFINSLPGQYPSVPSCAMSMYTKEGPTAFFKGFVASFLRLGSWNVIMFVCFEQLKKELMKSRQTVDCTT
The experiment in a line: whole-IMM patch clamp, WT vs UCP1-/-. The format is cell-based. (The patch-clamp technique gives a direct electrical read-out from membranes.)

For the next test, the target named is T2, ADP/ATP carrier AAC1 (Mus musculus, UniProt P48962).
T2 sequence (P48962 2-298): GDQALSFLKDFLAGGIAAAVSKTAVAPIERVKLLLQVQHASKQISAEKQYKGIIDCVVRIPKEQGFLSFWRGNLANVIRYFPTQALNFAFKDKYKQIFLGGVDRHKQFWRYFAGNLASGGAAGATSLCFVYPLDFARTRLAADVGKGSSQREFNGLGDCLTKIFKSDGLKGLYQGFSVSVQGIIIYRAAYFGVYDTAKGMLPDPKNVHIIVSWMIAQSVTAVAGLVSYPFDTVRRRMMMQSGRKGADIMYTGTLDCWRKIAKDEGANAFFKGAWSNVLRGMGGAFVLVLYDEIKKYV
The experiment in a line: whole-IMM patch clamp. It counts as cell-based.

The target of test [2] is T1, uncoupling protein 1 (UCP1). In words: whole-IMM patch clamp, dose-dependent inhibition of IH induced by […] DNP. It counts as biochemical.

Structures are written as SMILES.

Take `O=[N+]([O-])c1ccc(O)c([N+](=O)[O-])c1` [DNP, 2,4-dinitrophenol]: in test [1], the “whole-IMM patch clamp, WT vs UCP1-/-; GDP block; competition with ATP” value is “Thus, UCP1 is crucial for DNP-induced IH in brown fat mitochondria”.
In the case of `N#CC(C#N)=NNc1ccc(OC(F)(F)F)cc1` [FCCP], on ADP/ATP carrier AAC1, the “whole-IMM patch clamp (25-250 nM), WT vs AAC1-/-; CATR block” value was “DNP and FCCP activate IH through AAC”.
For `Nc1ncnc2c1ncn2[C@@H]1O[C@H](COP(=O)(O)OP(=O)(O)OP(=O)(O)O)[C@@H](O)[C@H]1O` [ATP], in test [2], the IC50 was approximately 14 µM.
